System: Phosphorylated Ribosomal Protein S6 (RPS6) in THP-1 cells
Experiment: THP-1 RPS6 ELISA Assay
Assay type: cell-based
Settings: Homo sapiens, 2 hours with compound, 10 nM MCP-1 for 15 minutes, read-out: THP p-RPS6 ELISA IC50
Procedure: To measure the Phosphorylated Ribosomal Protein S6 (RPS6) in cell lysates, THP-1 cells (Human Acute Monocytic Leukemia) are purchased from ATCC (Manassas, Va.) and maintained in RPMI with 10% FBS (Gibco/Life Technologies, Carlsbad, Calif.). For the assay, THP-1 cells are serum starved overnight in RPMI, then plated in RPMI (2×10^5 cells/well in 90 μL) into 96-well flat-bottom tissue culture treated plates (Corning, Corning, N.Y.), in the presence or absence of a concentration range of test compounds. Covered plates are incubated for 2 hours at 37° C., 5% CO2 then treated with or without 10 nM MCP-1 (MYBioSource, San Diego, Calif.) for 15 minutes at 37° C., 5% CO2. Plates are centrifuged at 1600 RPM and supernatants are removed. Cells are lysed in Lysis Buffer (Cell Signaling, Danvers, Mass.) with Protease Inhibitor (Calbiochem/EMD, Germany), PMSF (Sigma, St. Louis, Mo.), HALTS (Thermo Fisher, Rockford, Ill.) for 30 min on wet ice. Cell lysates are frozen at −80° C. before testing. The lysates are tested in the Human/Mouse/Rat Phospho-RPS6 ELISA (R&D Systems, Inc. Minn, Minn.). The plate is measured using a microplate reader (SpectraMax M5—Molecular Devices, LLC Sunnyvale, Calif.) set to 450 nm with a wavelength correction of 540. IC50 determination is performed by fitting the curve of inhibitor percent inhibition versus the log of the inhibitor concentration using the GraphPad Prism 5.0 software.

IC50, < 5 µM:
CCS(=O)(=O)Nc1cc(-c2ccc3nc(-c4nc5ccccc5[nH]4)oc3c2)cnc1C [Example 25, N-(5-(2-(1H-Benzo[d]imidazol-2-yl)benzo[d]oxazol-6-yl)-2-methylpyridin-3-yl)ethanesulfonamide]
OC(c1cncc(-c2ccc3nc(-c4nc5c([nH]4)CCCC5)oc3c2)c1)C(F)(F)F (centres unmarked) [Example 68, 2,2,2-Trifluoro-1-(5-(2-(4,5,6,7-tetrahydro-1H-benzo[d]imidazol-2-yl)benzo[d]oxazol-6-yl)pyridin-3-yl)ethanol]
CC(C)Oc1cncc(-c2ccc3nc(-c4nc5ccccc5[nH]4)oc3c2)c1 [Example 15, 2-(1H-Benzo[d]imidazol-2-yl)-6-(5-isopropoxypyridin-3-yl)benzo[d]oxazole]
N#Cc1cncc(-c2ccc3nc(-c4nc5ccccc5[nH]4)oc3c2)c1 [Example 35, 5-(2-(1H-Benzo[d]imidazol-2-yl)benzo[d]oxazol-6-yl)nicotinonitrile]
CCS(=O)(=O)Nc1cc(-c2ccc3nc(-c4nc5c([nH]4)CCCC5)oc3c2)cnc1OC [Example 66, N-(2-Methoxy-5-(2-(4,5,6,7-tetrahydro-1H-benzo[d]imidazol-2-yl)benzo[d]oxazol-6-yl)pyridin-3-yl)ethanesulfonamide]
CCS(=O)(=O)Nc1cncc(-c2ccc3nc(-c4ncc[nH]4)oc3c2)c1 [Example 40, N-(5-(2-(1H-Imidazol-2-yl)benzo[d]oxazol-6-yl)pyridin-3-yl)ethanesulfonamide]
O=S(=O)(Nc1cncc(-c2ccc3nc(-c4nc5ccccc5[nH]4)oc3c2)c1)c1cccc(F)c1 [Example 19, N-(5-(2-(1H-Benzo[d]imidazol-2-yl)benzo[d]oxazol-6-yl)pyridin-3-yl)-3-fluorobenzene-sulfonamide]

IC50, < 1 µM:
Cc1nc(-c2nc3ccc(-c4cncc(C(O)C(F)(F)F)c4)cc3o2)[nH]c1C (centres unmarked) [Example 67, 1-(5-(2-(4,5-Dimethyl-1H-imidazol-2-yl)benzo[d]oxazol-6-yl)pyridin-3-yl)-2,2,2-trifluoroethanol bis(trifluoroacetate)]
CCS(=O)(=O)Nc1cc(-c2ccc3nc(-c4nc5ccccc5[nH]4)oc3c2)cnc1OC [Example 79, N-(5-(2-(1H-Benzo[d]imidazol-2-yl)benzo[d]oxazol-6-yl)-2-methoxypyridin-3-yl)ethanesulfonamide bis(trifluoroacetate)]
Cc1ncc(-c2ccc3nc(-c4nc5ccccc5[nH]4)oc3c2)cc1NS(=O)(=O)CC(F)(F)F [Example 76, N-(5-(2-(1H-Benzo[d]imidazol-2-yl)benzo[d]oxazol-6-yl)-2-methylpyridin-3-yl)-2,2,2-trifluoroethanesulfonamide bis(trifluoroacetate)]
O=S(=O)(Nc1cncc(-c2ccc3nc(-c4ncc[nH]4)oc3c2)c1)c1ccc(F)cc1 [Example 39, N-(5-(2-(1H-Imidazol-2-yl)benzo[d]oxazol-6-yl)pyridin-3-yl)-4-fluorobenzenesulfonamide]
O=S(=O)(Nc1cc(-c2ccc3nc(-c4nc5ccccc5[nH]4)oc3c2)cnc1Cl)c1ccc(F)cc1 [Example 29, N-(5-(2-(1H-Benzo[d]imidazol-2-yl)benzo[d]oxazol-6-yl)-2-chloropyridin-3-yl)-4-fluorobenzene-sulfonamide]
O=S(=O)(CC(F)(F)F)Nc1cc(-c2ccc3nc(-c4nc5ccccc5[nH]4)oc3c2)cnc1F [Example 75, N-(5-(2-(1H-Benzo[d]imidazol-2-yl)benzo[d]oxazol-6-yl)-2-fluoropyridin-3-yl)-2,2,2-trifluoroethanesulfonamide bis(trifluoroacetate)]
CN1CCN(S(=O)(=O)Nc2cc(-c3ccc4nc(-c5nc6ccccc6[nH]5)oc4c3)cnc2F)CC1 [Example 32, N-(5-(2-(1H-Benzo[d]imidazol-2-yl)benzo[d]oxazol-6-yl)-2-fluoropyridin-3-yl)-4-methylpiperazine-1-sulfonamide]
CCS(=O)(=O)Nc1cc(-c2ccc3nc(-c4nc5ccccc5[nH]4)oc3c2)cnc1Cl [Example 26, N-(5-(2-(1H-Benzo[d]imidazol-2-yl)benzo[d]oxazol-6-yl)-2-chloropyridin-3-yl)ethanesulfonamide]
O=S(=O)(Nc1cc(-c2ccc3nc(-c4nc5ccccc5[nH]4)oc3c2)cnc1F)c1ccc(F)cc1 [Example 30, N-(5-(2-(1H-Benzo[d]imidazol-2-yl)benzo[d]oxazol-6-yl)-2-fluoropyridin-3-yl)-4-fluorobenzene-sulfonamide]
OC(c1cncc(-c2ccc3nc(-c4ncc[nH]4)oc3c2)c1)C(F)(F)F (centres unmarked) [Example 61, 1-(5-(2-(1H-Imidazol-2-yl)benzo[d]oxazol-6-yl)pyridin-3-yl)-2,2,2-trifluoroethanol bis(trifluoroacetate)]
CN(C)S(=O)(=O)Nc1cc(-c2ccc3nc(-c4nc5ccccc5[nH]4)oc3c2)cnc1F [Example 23, N′-{5-[2-(1H-Benzimidazol-2-yl)-1,3-benzoxazol-6-yl]-2-fluoropyridin-3-yl}-N,N-dimethylsulfamide]
CN1CCN(S(=O)(=O)Nc2cncc(-c3ccc4nc(-c5nc6ccccc6[nH]5)oc4c3)c2)CC1 [Example 31, N-(5-(2-(1H-Benzo[d]imidazol-2-yl)benzo[d]oxazol-6-yl)pyridin-3-yl)-4-methylpiperazine-1-sulfonamide]
O=S(=O)(CC(F)(F)F)Nc1cncc(-c2ccc3nc(-c4nc5ccccc5[nH]4)oc3c2)c1 [Example 77, N-(5-(2-(1H-Benzo[d]imidazol-2-yl)benzo[d]oxazol-6-yl)pyridin-3-yl)-2,2,2-trifluoroethanesulfonamide bis(trifluoroacetate)]

IC50, ≥ 5 µM:
c1ccc2[nH]c(-c3nc4ccc(-c5ccc6[nH]ncc6c5)cc4o3)nc2c1 [Example 49, 2-(1H-Benzimidazol-2-yl)-6-(1H-indazol-5-yl)-1,3-benzoxazole]
CCn1ncc2ccc(-c3ccc4nc(-c5nc6ccccc6[nH]5)oc4c3)cc21 [Example 54, 2-(1H-Benzimidazol-2-yl)-6-(1-ethyl-1H-indazol-6-yl)-1,3-benzoxazole bis(trifluoroacetate)]
c1ccc(Cn2cc(-c3ccc4nc(-c5nc6ccccc6[nH]5)oc4c3)cn2)cc1 [Example 48, 2-(1H-Benzimidazol-2-yl)-6-(1-benzyl-1H-pyrazol-4-yl)-1,3-benzoxazole]
CCS(=O)(=O)Nc1cc(-c2ccc3nc(-c4nc5ccccc5[nH]4)oc3c2)ccc1F [Example 60, N-{5-[2-(1H-Benzimidazol-2-yl)-1,3-benzoxazol-6-yl]-2-fluorophenyl}ethanesulfonamide]
COc1cncc(-c2ccc3nc(-c4cnc(C5CC5)[nH]4)oc3c2)c1 [Example 42, 2-(2-Cyclopropyl-1H-imidazol-5-yl)-6-(5-methoxypyridin-3-yl)benzo[d]oxazole]
CP(C)(=O)c1cncc(-c2ccc3nc(-c4nc5ccccc5[nH]4)oc3c2)c1 [Example 72, 2-(1H-Benzo[d]imidazol-2-yl)-6-(5-(dimethylphosphoryl)pyridin-3-yl)benzo[d]oxazole bis(trifluoroacetate)]
Nc1ncc(-c2ccc3nc(-c4nc5ccccc5[nH]4)oc3c2)cc1C(F)(F)F [Example 56, 5-[2-(1H-Benzimidazol-2-yl)-1,3-benzoxazol-6-yl]-3-(trifluoromethyl)pyridin-2-amine bis(trifluoroacetate)]
CCS(=O)(=O)Nc1cc(-c2ccc3nc(-c4nc5ccccc5[nH]4)oc3c2)cc(F)c1OC [Example 80, N-(5-(2-(1H-Benzo[d]imidazol-2-yl)benzo[d]oxazol-6-yl)-3-fluoro-2-methoxyphenyl)ethanesulfonamide bis(trifluoroacetate)]
CCn1ncc2ncc(-c3ccc4nc(-c5nc6ccccc6[nH]5)oc4c3)cc21 [Example 57, 6-[2-(1H-Benzimidazol-2-yl)-1,3-benzoxazol-6-yl]-1-ethyl-1H-pyrazolo[4,3-b]pyridine tris(trifluoroacetate)]
OC(c1cncc(-c2ccc3nc(-c4nc5ccccc5[nH]4)oc3c2)c1)C(F)(F)F (centres unmarked) [Example 74, 1-(5-(2-(1H-Benzo[d]imidazol-2-yl)benzo[d]oxazol-6-yl)pyridin-3-yl)-2,2,2-trifluoroethanol bis(trifluoroacetate)]
CC(C)S(=O)(=O)Nc1cncc(-c2ccc3nc(-c4nc5ccccc5[nH]4)oc3c2)c1 [Example 24, N-(5-(2-(1H-Benzo[d]imidazol-2-yl)benzo[d]oxazol-6-yl)pyridin-3-yl)propane-2-sulfonamide]
CCS(=O)(=O)n1ncc2ccc(-c3ccc4nc(-c5nc6ccccc6[nH]5)oc4c3)cc21 [Example 52, 6-[1-(Ethylsulfonyl)-1H-indazol-6-yl]-2-(1H-benzimidazol-2-yl)-1,3-benzoxazole]

Reference: patent US10022387B2, “Aza-heteroaryl compounds as PI3K-gamma inhibitors” (Incyte Corporation, priority 2015, dated 2018)
